In patent publication US8338587B2, “Compounds” (AstraZeneca AB, priority 2009, dated 2012):

Each compound was assayed against T1, recombinant human GR (Homo sapiens, UniProt P04150) (assay: Human Glucocorticoid Receptor (GR) Assay (fluorescence polarization competition, Panvera/Invitrogen kit)). Settings: GS Red Fluoromone tracer, 2 hours at room temperature, 100% control 10 μM Dexamethasone, read-out: Inhibition of GR binding, IC50.
T1 construct: purchased Panvera/Invitrogen P2812 (kit P2893)
T1 sequence (P04150 1-777): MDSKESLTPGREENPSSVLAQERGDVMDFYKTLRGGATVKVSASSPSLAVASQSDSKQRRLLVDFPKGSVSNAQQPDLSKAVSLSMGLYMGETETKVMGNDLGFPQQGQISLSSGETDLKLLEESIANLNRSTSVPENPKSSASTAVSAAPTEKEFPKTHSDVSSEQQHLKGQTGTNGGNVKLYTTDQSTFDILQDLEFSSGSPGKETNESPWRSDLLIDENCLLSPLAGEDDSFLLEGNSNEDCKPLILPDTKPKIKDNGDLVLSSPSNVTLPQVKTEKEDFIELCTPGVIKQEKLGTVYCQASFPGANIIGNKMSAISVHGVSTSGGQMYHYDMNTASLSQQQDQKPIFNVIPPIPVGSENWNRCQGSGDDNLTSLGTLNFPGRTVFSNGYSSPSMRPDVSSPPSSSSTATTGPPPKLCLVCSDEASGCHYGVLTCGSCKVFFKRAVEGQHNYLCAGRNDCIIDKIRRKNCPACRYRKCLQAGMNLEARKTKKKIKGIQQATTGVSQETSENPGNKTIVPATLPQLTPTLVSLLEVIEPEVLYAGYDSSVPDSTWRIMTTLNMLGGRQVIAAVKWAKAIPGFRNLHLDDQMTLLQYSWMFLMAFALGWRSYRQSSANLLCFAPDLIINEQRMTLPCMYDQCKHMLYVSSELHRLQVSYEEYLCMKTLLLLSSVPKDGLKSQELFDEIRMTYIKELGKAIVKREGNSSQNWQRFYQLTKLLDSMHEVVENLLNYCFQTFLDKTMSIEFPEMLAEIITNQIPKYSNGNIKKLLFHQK
Description: Human Glucocorticoid Receptor (GR) Assay The assay is based on a commercial kit from Panvera/Invitrogen (Part number P2893). The assay technology is fluorescence polarization. The kit utilises recombinant human GR (Panvera, Part number P2812), a Fluoromone™ labelled tracer (GS Red, Panvera, Part number P2894) and a Stabilizing Peptide 10× (Panvera, Part number P2815). The GR and Stabilizing Peptide reagents are stored at −70° C. while the GS Red is stored at −20° C. Also included in the kit are 1M DTT (Panvera, Part number P2325, stored at −20° C.) and GR Screening buffer 10× (Panvera, Part number P2814, stored at −70° C. initially but once thawed stored at room temperature). Avoid repeated freeze/thaws for all reagents. The GR Screening buffer 10× comprises 100 mM potassium phosphate, 200 mM sodium molybdate, 1 mM EDTA and 20% DMSO. Test compounds (1 μL) and controls (1 μL) in 100% DMSO were added to black is polystyrene 384-well plates (Greiner low volume black flat-bottom, part number 784076). 0% control was 100% DMSO and 100% control was 10 μM Dexamethasone. Background solution (8 μL; assay buffer 10×, Stabilizing Peptide, DTT and ice cold MQ water) was added to the background wells. GS Red solution (7 μL; assay buffer 10×, Stabilizing Peptide, DTT, GS Red and ice cold water) was added to all wells except background wells. GR solution (7 μL; assay buffer 10×, Stabilizing Peptide, DTT, GR and ice cold water) was added to all wells. The plate was sealed and incubated in a dark at room temperature for 2 hours. The plate was read in an Analyst plate reader (LJL Biosystems/Molecular Devices Corporation) or other similar plate reader capable of recording fluorescence polarization (excitation wavelength 530 nm, emission wavelength 590 nm and a dichroic mirror at 561 nm).

Row | SMILES | IC50
1 | COCC(=O)O[C@]1(C(=O)SCF)CC[C@H]2[C@@H]3C[C@H](C)C4=Cc5c(cnn5-c5ccc(F)nc5)C[C@]4(C)[C@H]3[C@@H](O)C[C@@]21C [Example 8, (1R,3aS,3bS,5S,10aR,10bS,11S,12aS)-1-{[(Fluoromethyl)sulfanyl]carbonyl}-7-(6-fluoropyridin-3-yl)-11-hydroxy-5,10a,12a-trimethyl-1,2,3,3a,3b,4,5,7,10,10a,10b,11,12,12a-tetradecahydrocyclopenta[5,6]naphtho[1,2-f]indazol-1-yl methoxyacetate] | 0.93 nM
2 | C[C@H]1C[C@@H]2[C@H]([C@@H](O)C[C@@]3(C)[C@H]2CC[C@]3(OC(=O)c2cocn2)C(=O)SCF)[C@@]2(C)Cc3cnn(-c4ccc(F)nc4)c3C=C12 [Example 9, (1R,3aS,3bS,5S,10aR,10bS,11S,12aS)-1-{[(Fluoromethyl)sulfanyl]carbonyl}-7-(6-fluoropyridin-3-yl)-11-hydroxy-5,10a,12a-trimethyl-1,2,3,3a,3b,4,5,7,10,10a,10b,11,12,12a-tetradecahydrocyclopenta[5,6]naphtho[1,2-f]indazol-1-yl 1,3-oxazole-4-carboxylate] | 1.5 nM
3 | C[C@H]1C[C@@H]2[C@H]([C@@H](O)C[C@@]3(C)[C@H]2CC[C@]3(OC(=O)c2cocn2)C(=O)SCC#N)[C@@]2(C)Cc3cnn(-c4ccc(F)nc4)c3C=C12 [Example 10, (1R,3aS,3bS,5S,10aR,10bS,11S,12aS)-1-{[(Cyanomethyl)sulfanyl]carbonyl}-7-(6-fluoropyridin-3-yl)-11-hydroxy-5,10a,12a-trimethyl-1,2,3,3a,3b,4,5,7,10,10a,10b,11,12,12a-tetradecahydrocyclopenta[5,6]naphtho[1,2-f]indazol-1-yl 1,3-oxazole-4-carboxylate] | 0.89 nM
4 | C[C@H]1C[C@@H]2[C@H]([C@@H](O)C[C@@]3(C)[C@H]2CC[C@]3(OC(=O)C2CC2)C(=O)SCC#N)[C@@]2(C)Cc3cnn(-c4ccc(F)nc4)c3C=C12 [Example 11, (1R,3aS,3bS,5S,10aR,10bS,11S,12aS)-1-{[(Cyanomethyl)sulfanyl]carbonyl}-7-(6-fluoropyridin-3-yl)-11-hydroxy-5,10a,12a-trimethyl-1,2,3,3a,3b,4,5,7,10,10a,10b,11,12,12a-tetradecahydrocyclopenta[5,6]naphtho[1,2-f]indazol-1-yl cyclopropanecarboxylate] | 2.1 nM
5 | C[C@]12Cc3cnn(-c4ccc(F)nc4)c3C=C1CC[C@H]1[C@@H]3CC[C@](OC(=O)[C@H]4CCCO4)(C(=O)SCC#N)[C@@]3(C)C[C@H](O)[C@@]12F [Example 12, (1R,3aS,3bS,10aS,10bR,11S,12aS)-1-{[(Cyanomethyl)sulfanyl]carbonyl}-10b-fluoro-7-(6-fluoropyridin-3-yl)-11-hydroxy-10a,12a-dimethyl-1,2,3,3a,3b,4,5,7,10, 10a,10b,11,12,12a-tetradecahydrocyclopenta[5,6]naphtho[1,2-f]indazol-1-yl (2R)-tetrahydrofuran-2-carboxylate] | 1 nM
6 | C[C@]12Cc3cnn(-c4ccc(F)nc4)c3C=C1CC[C@H]1[C@@H]3CC[C@](OC(=O)[C@H]4CCCO4)(C(=O)SCF)[C@@]3(C)C[C@H](O)[C@@]12F [Example 13, (1R,3aS,3bS,10aS,10bR,11S,12aS)-10b-Fluoro-1-{[(fluoromethyl)sulfanyl]carbonyl}-7-(6-fluoropyridin-3-yl)-11-hydroxy-10a,12a-dimethyl-1,2,3,3a,3b,4,5,7,10,10a,10b,11,12,12a-tetradecahydrocyclopenta[5,6]naphtho[1,2-f]indazol-1-yl (2R)-tetrahydrofuran-2-carboxylate] | 0.98 nM
7 | C[C@]12Cc3cnn(-c4ccc(F)nc4)c3C=C1CC[C@H]1[C@@H]3CC[C@](OC(=O)[C@H]4CCCO4)(C(=O)SCCO)[C@@]3(C)C[C@H](O)[C@@]12F [Example 14, (1R,3aS,3bS,10aS,10bR,11S,12aS)-10b-Fluoro-7-(6-fluoropyridin-3-yl)-11-hydroxy-1-{[(2-hydroxyethyl)sulfanyl]carbonyl}-10a,12a-dimethyl-1,2,3,3a,3b,4,5,7, 10, 10a, 10,11,12,12a-tetradecahydrocyclopenta[5,6]naphtho[1,2-f]indazol-1-yl (2R)-tetrahydrofuran-2-carboxylate] | 0.65 nM
8 | C[C@]12Cc3cnn(-c4ccc(F)nc4)c3C=C1CC[C@H]1[C@@H]3CC[C@](OC(=O)[C@@H]4CCCO4)(C(=O)SCC#N)[C@@]3(C)C[C@H](O)[C@@]12F [Example 17, (1R,3aS,3bS,10aS,10bR,11S,12aS)-1-{[(Cyanomethyl)sulfanyl]carbonyl}-10b-fluoro-7-(6-fluoropyridin-3-yl)-11-hydroxy-10a,12a-dimethyl-1,2,3,3a,3b,4,5,7,10,10a,10b,11,12,12a-tetradecahydrocyclopenta[5,6]naphtho[1,2-f]indazol-1-yl (2S)-tetrahydrofuran-2-carboxylate] | 0.55 nM
9 | C[C@]12Cc3cnn(-c4ccc(F)nc4)c3C=C1CC[C@H]1[C@@H]3CC[C@](OC(=O)C4CC4)(C(=O)OCC#N)[C@@]3(C)C[C@H](O)[C@@]12F [Example 19, (1R,3aS,3bS,10aS,10bR,11S,12aS)-1-{[Cyanomethyloxy]carbonyl}-10b-fluoro-7-(6-fluoropyridin-3-yl)-11-hydroxy-10a,12a-dimethyl-1,2,3,3a,3b,4,5,7,10,10a,10b,11,12,12a-tetradecahydrocyclopenta[5,6]naphtho[1,2-f]indazol-1-yl cyclopropanecarboxylate] | 1.4 nM
10 | C[C@H]1C[C@@H]2[C@H]([C@@H](O)C[C@@]3(C)[C@H]2CC[C@]3(OC(=O)c2ccco2)C(=O)SCF)[C@@]2(C)Cc3cnn(-c4ccc(F)nc4)c3C=C12 [Example 21, (1R,3aS,3bS,5S,10aR,10bS,11S,12aS)-1-{[(Fluoromethyl)sulfanyl]carbonyl}-7-(6-fluoropyridin-3-yl)-11-hydroxy-5,10a,12a-trimethyl-1,2,3,3a,3b,4,5,7,10,10a,10b,11,12,12a-tetradecahydrocyclopenta[5,6]naphtho[1,2-f]indazol-1-yl furan-2-carboxylate] | 2.8 nM
11 | C[C@H]1C[C@@H]2[C@H]([C@@H](O)C[C@@]3(C)[C@H]2CC[C@]3(OC(=O)c2ccco2)C(=O)SCC#N)[C@@]2(C)Cc3cnn(-c4ccc(F)nc4)c3C=C12 [Example 22, (1R,3aS,3bS,5S,10aR,10bS,11S,12aS)-1-{[(Cyanomethyl)sulfanyl]carbonyl}-7-(6-fluoropyridin-3-yl)-11-hydroxy-5,10a,12a-trimethyl-1,2,3,3a,3b,4,5,7,10,10a,10b,11,12,12a-tetradecahydrocyclopenta[5,6]naphtho[1,2-f]indazol-1-yl furan-2-carboxylate] | 1.7 nM
12 | CCC(=O)O[C@]1(C(=O)SCC#N)CC[C@H]2[C@@H]3C[C@H](C)C4=Cc5c(cnn5-c5ccc(F)nc5)C[C@]4(C)[C@H]3[C@@H](O)C[C@@]21C [Example 23, (1R,3aS,3bS,5S,10aR,10bS,11S,12aS)-1-{[(Cyanomethyl)sulfanyl]carbonyl}-7-(6-fluoropyridin-3-yl)-11-hydroxy-5,10a,12a-trimethyl-1,2,3,3a,3b,4,5,7,10,10a,10b,11,12,12a-tetradecahydrocyclopenta[5,6]naphtho[1,2-f]indazol-1-yl propanoate] | 1 nM
